Read-outs that look alike come from different tables or passages of the source. Starred links: 1 amine or outer side, 2 acyl side, 3 side chain; linkers in the order of their positions; H or OH if unused. Non-standard residues stand in square brackets, D forms with d. Groups on a side chain read outwards from the residue. *: point of attachment. C20 diacid = O=C(O)CCCCCCCCCCCCCCCCCCC(=O)*; C18 diacid = O=C(O)CCCCCCCCCCCCCCCCC(=O)*; γGlu = O=C(O)[C@H](CCC(=O)[*:2])N[*:1]; εLys = N[C@@H](CCCCN[*:1])C(=O)[*:2]; AEEA = NCCOCCOCC(=O)O; Aib = CC(C)(N)C(=O)O
Columns and labels:
Type in all cases: cell-based
Settings in all cases: CreLuc reporter gene assay
[1] = molecular target: T1, hGLP1R (Homo sapiens, UniProt P43220); assay: hGLP1R CreLuc reporter gene assay in 0.5% and 100% plasma
T1 construct: expressed in transfected cells; host or cells: HEK-293 cells carrying a CRE-luciferase reporter gene
How it was run: (§1)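 Agonist EC50s came from 8-concentration curves over four decades, fitted by non-linear variable-slope regression of CRE-driven luciferase luminescence. Cells were exposed 4 h at 37 °C, in buffer with 0.5% human plasma or in 100% plasma; GIPR was expressed in CHO cells, GLP-1R and NPY2R in HEK cells.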

[2] = molecular target: T2, hNPY2R (Homo sapiens, UniProt P49146); assay: hNPY2R CreLuc reporter gene assay in 0.5% and 100% plasma
T2 construct: expressed in transfected cells; host or cells: HEK-293 cells carrying a CRE-luciferase reporter gene
T2 sequence (P49146 1-381): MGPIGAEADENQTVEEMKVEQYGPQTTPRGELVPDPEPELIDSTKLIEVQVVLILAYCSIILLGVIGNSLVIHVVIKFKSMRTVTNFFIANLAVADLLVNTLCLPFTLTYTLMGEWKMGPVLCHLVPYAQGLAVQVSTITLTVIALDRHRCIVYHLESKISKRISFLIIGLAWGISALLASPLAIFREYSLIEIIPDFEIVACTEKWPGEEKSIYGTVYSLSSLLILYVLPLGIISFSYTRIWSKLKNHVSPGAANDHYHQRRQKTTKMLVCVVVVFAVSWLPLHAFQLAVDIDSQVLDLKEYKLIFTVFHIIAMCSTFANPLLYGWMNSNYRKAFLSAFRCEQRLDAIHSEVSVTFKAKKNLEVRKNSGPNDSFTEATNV
How it was run: as §1

[3] = molecular target: T3, hGIPR (Homo sapiens, UniProt P48546); assay: hGIPR CreLuc reporter gene assay in 0.5% and 100% plasma
T3 construct: expressed in transfected cells; host or cells: CHO cells carrying a CRE-luciferase reporter gene
T3 sequence (P48546 22-466): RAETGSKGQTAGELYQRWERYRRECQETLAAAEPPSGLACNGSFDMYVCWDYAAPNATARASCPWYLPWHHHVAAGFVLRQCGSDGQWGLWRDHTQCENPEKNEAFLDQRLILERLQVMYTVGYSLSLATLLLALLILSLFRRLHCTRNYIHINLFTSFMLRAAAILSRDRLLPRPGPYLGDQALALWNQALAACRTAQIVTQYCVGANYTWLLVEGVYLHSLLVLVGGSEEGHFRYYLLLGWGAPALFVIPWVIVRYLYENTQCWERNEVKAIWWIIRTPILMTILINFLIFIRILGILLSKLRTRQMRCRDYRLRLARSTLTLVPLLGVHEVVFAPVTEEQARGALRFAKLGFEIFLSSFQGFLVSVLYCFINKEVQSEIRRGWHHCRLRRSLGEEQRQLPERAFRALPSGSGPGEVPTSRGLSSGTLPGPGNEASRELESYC
How it was run: as §1

[4] = 0.5% human plasma, read-out: hGLP1R 0.5% hP
[5] = 0.5% human plasma, read-out: hNPY2R 0.5% hP
[6] = 0.5% human plasma, read-out: hGIPR 0.5% hP
[7] = 100% human plasma, read-out: hGIPR 100% hP
[8] = 100% human plasma, read-out: hNPY2R 100% hP
[9] = 100% human plasma, read-out: hGLP1R 100% hP

T1 sequence (P43220 24-463): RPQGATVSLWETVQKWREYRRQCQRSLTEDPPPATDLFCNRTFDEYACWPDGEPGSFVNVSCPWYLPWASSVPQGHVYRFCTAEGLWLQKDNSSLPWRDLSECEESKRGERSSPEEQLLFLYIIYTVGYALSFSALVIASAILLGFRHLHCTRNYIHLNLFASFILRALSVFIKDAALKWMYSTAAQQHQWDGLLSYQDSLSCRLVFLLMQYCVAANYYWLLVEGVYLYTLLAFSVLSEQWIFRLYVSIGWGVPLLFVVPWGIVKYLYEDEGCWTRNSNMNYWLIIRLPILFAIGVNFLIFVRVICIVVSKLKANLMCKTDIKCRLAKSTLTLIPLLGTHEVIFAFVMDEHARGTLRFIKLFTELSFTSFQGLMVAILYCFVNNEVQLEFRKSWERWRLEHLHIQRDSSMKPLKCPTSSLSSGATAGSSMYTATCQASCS

EC50 [1, 4] | EC50 [2, 5] | EC50 [3, 6] | EC50 [3, 7] | EC50 [2, 8] | EC50 [1, 9] | Molecule
0.14 nM | 14 nM | 0.77 nM | 0.73 nM | – | – | H-Y[Aib]EGTFTSDYSI[Aib]LEKQAQ[Aib]AFVQWLIK([AEEA-AEEA-γGlu-γGlu-γGlu-γGlu-C18 diacid])GGPEEGASLRHYYNWLTRQRY-NH2 [Compound 146, Y-Aib-E-G-T-F-T-S-D-Y-S-I-Aib-L-E-K-Q-A-Q-Aib-A-F-V-Q-W-L-I-K(1,3)-GGPEEGASLRHYYNWLTRQRY-NH2.C18DA-gGlu-gGlu-gGlu-gGlu-OEG-OEG(1,2)]
0.08 nM | – | 0.21 nM | 0.89 nM | 55.2 nM | – | H-Y[Aib]EGTFTSDYSI[Aib]LEKQAQ[Aib]AFVEWLIK([γGlu-γGlu-γGlu-γGlu-C18 diacid])GGPSEGASLRHYYNWLTRQRY-NH2 [Compound 294, Y-Aib-E-G-T-F-T-S-D-Y-S-I-Aib-L-E-K-Q-A-Q-Aib-A-F-V-E-W-L-I-K(1,3)-GGPSEGASLRHYYNWLTRQRY-NH2.C18DA-gGlu-gGlu-gGlu-gGlu(1,2)]
0.24 nM | 18.7 nM | 0.64 nM | – | – | 11.6 nM | H-Y[Aib]EGTFTSDYSI[Aib]LEEEAQ[Aib]AFVEWLIK([εLys-γGlu-γGlu-γGlu-γGlu-γGlu-γGlu-C20 diacid])GGPSSGASLRHYYNWLTRQRY-NH2 [Compound 66, Y-Aib-E-G-T-F-T-S-D-Y-S-I-Aib-L-E-E-E-A-Q-Aib-A-F-V-E-W-L-I-K(1,3)-GGPSSGASLRHYYNWLTRQRY-NH2.C20DA-gGlu-gGlu-gGlu-gGlu-gGlu-gGlu-eLys(1,2)]
0.33 nM | 24.8 nM | 0.98 nM | – | – | – | H-Y[Aib]EGTFTSDYSI[Aib]LEAQAQ[Aib]AFVEWLIK([εLys-γGlu-γGlu-γGlu-γGlu-γGlu-γGlu-C20 diacid])GGPSSGASLRHYYNWLTRQRY-NH2 [Compound 102, Y-Aib-E-G-T-F-T-S-D-Y-S-I-Aib-L-E-A-Q-A-Q-Aib-A-F-V-E-W-L-I-K(1,3)-GGPSSGASLRHYYNWLTRQRY-NH2.C20DA-gGlu-gGlu-gGlu-gGlu-gGlu-gGlu-eLys(1,2)]
0.09 nM | 15.8 nM | 0.11 nM | 0.84 nM | 39.9 nM | – | H-Y[Aib]EGTFTSDYSI[Aib]LEKQAQ[Aib]AFVEWLIK([AEEA-AEEA-γGlu-γGlu-γGlu-γGlu-C18 diacid])GGPSSPASLRHYYNWLTRQRY-NH2 [Compound 158, Y-Aib-E-G-T-F-T-S-D-Y-S-I-Aib-L-E-K-Q-A-Q-Aib-A-F-V-E-W-L-I-K(1,3)-GGPSSPASLRHYYNWLTRQRY-NH2.C18DA-gGlu-gGlu-gGlu-gGlu-OEG-OEG(1,2)]
0.11 nM | 12.4 nM | 0.27 nM | 0.94 nM | 24.9 nM | 3.07 nM | H-Y[Aib]EGTFTSDYSI[Aib]LEKQAQ[Aib]AFVQWLIK([AEEA-AEEA-γGlu-γGlu-γGlu-γGlu-C18 diacid])GGPSEPASLRHYYNWLTRQRY-NH2 [Compound 173, Y-Aib-E-G-T-F-T-S-D-Y-S-I-Aib-L-E-K-Q-A-Q-Aib-A-F-V-Q-W-L-I-K(1,3)-GGPSEPASLRHYYNWLTRQRY-NH2.C18DA-gGlu-gGlu-gGlu-gGlu-OEG-OEG(1,2)]
0.04 nM | 13.2 nM | 0.05 nM | 0.84 nM | – | 1.6 nM | CC[C@H](C)[C@H](NC(=O)[C@H](CC(C)C)NC(=O)[C@H](Cc1c[nH]c2ccccc12)NC(=O)[C@H](CCC(=O)O)NC(=O)[C@@H](NC(=O)[C@H](Cc1ccccc1)NC(=O)[C@H](C)NC(=O)C(C)(C)NC(=O)[C@H](CCC(N)=O)NC(=O)[C@H](C)NC(=O)[C@H](CCC(N)=O)NC(=O)[C@H](CCCCN)NC(=O)[C@H](CCC(=O)O)NC(=O)[C@H](CC(C)C)NC(=O)C(C)(C)NC(=O)[C@@H](NC(=O)[C@H](CO)NC(=O)[C@H](Cc1ccc(O)cc1)NC(=O)[C@H](CC(=O)O)NC(=O)[C@H](CO)NC(=O)[C@@H](NC(=O)[C@H](Cc1ccccc1)NC(=O)[C@@H](NC(=O)CNC(=O)[C@H](CCC(=O)O)NC(=O)C(C)(C)NC(=O)[C@@H](N)Cc1ccc(O)cc1)[C@@H](C)O)[C@@H](C)O)[C@@H](C)CC)C(C)C)C(=O)N[C@@H](CCCCNC(=O)[C@@H](N)CCCCNC(=O)CC[C@H](NC(=O)CC[C@H](NC(=O)CC[C@H](NC(=O)CC[C@H](NC(=O)CC[C@H](NC(=O)CC[C@H](NC(=O)CCCCCCCCCCCCCCCCCCC(=O)O)C(=O)O)C(=O)O)C(=O)O)C(=O)O)C(=O)O)C(=O)O)C(=O)NCC(=O)NCC(=O)N1CCC[C@H]1C(=O)N[C@@H](CO)C(=O)N[C@@H](CO)C(=O)NCC(=O)N[C@@H](CCC(=O)O)C(=O)N[C@@H](CO)C(=O)N[C@@H](CC(C)C)C(=O)N[C@@H](CCCNC(=N)N)C(=O)N[C@@H](Cc1c[nH]cn1)C(=O)N[C@@H](Cc1ccc(O)cc1)C(=O)N[C@@H](Cc1ccc(O)cc1)C(=O)N[C@@H](CC(N)=O)C(=O)N[C@@H](Cc1c[nH]c2ccccc12)C(=O)N[C@@H](CC(C)C)C(=O)N[C@H](C(=O)N[C@@H](CCCNC(=N)N)C(=O)N[C@@H](CCC(N)=O)C(=O)N[C@@H](CCCNC(=N)N)C(=O)N[C@@H](Cc1ccc(O)cc1)C(N)=O)[C@@H](C)O [Compound 127, Y-Aib-E-G-T-F-T-S-D-Y-S-I-Aib-L-E-K-Q-A-Q-Aib-A-F-V-E-W-L-I-K(1,3)-GGPSSGESLRHYYNWLTRQRY-NH2.C20DA-gGlu-gGlu-gGlu-gGlu-gGlu-gGlu-eLys(1,2)]
0.11 nM | > 99.9 nM | 0.14 nM | 0.87 nM | > 999 nM | 1.66 nM | CC[C@H](C)[C@H](NC(=O)[C@H](CC(C)C)NC(=O)[C@H](Cc1c[nH]c2ccccc12)NC(=O)[C@H](CCC(=O)O)NC(=O)[C@@H](NC(=O)[C@H](Cc1ccccc1)NC(=O)[C@H](C)NC(=O)C(C)(C)NC(=O)[C@H](CCC(N)=O)NC(=O)[C@H](C)NC(=O)[C@H](CCC(N)=O)NC(=O)[C@H](CCCCN)NC(=O)[C@H](CCC(=O)O)NC(=O)[C@H](CC(C)C)NC(=O)C(C)(C)NC(=O)[C@@H](NC(=O)[C@H](CO)NC(=O)[C@H](Cc1ccc(O)cc1)NC(=O)[C@H](CC(=O)O)NC(=O)[C@H](CO)NC(=O)[C@@H](NC(=O)[C@H](Cc1ccccc1)NC(=O)[C@@H](NC(=O)CNC(=O)[C@H](CCC(=O)O)NC(=O)C(C)(C)NC(=O)[C@@H](N)Cc1ccc(O)cc1)[C@@H](C)O)[C@@H](C)O)[C@@H](C)CC)C(C)C)C(=O)N[C@@H](CCCCNC(=O)[C@@H](N)CCCCNC(=O)CC[C@H](NC(=O)CC[C@H](NC(=O)CC[C@H](NC(=O)CC[C@H](NC(=O)CC[C@H](NC(=O)CC[C@H](NC(=O)CCCCCCCCCCCCCCCCCCC(=O)O)C(=O)O)C(=O)O)C(=O)O)C(=O)O)C(=O)O)C(=O)O)C(=O)NCC(=O)NCC(=O)N1CCC[C@H]1C(=O)N[C@@H](CO)C(=O)N[C@@H](CO)C(=O)NCC(=O)N[C@@H](C)C(=O)N[C@@H](CO)C(=O)N[C@@H](CC(C)C)C(=O)N[C@@H](CCCNC(=N)N)C(=O)N[C@H](Cc1c[nH]cn1)C(=O)N[C@@H](Cc1ccc(O)cc1)C(=O)N[C@@H](Cc1ccc(O)cc1)C(=O)N[C@@H](CC(N)=O)C(=O)N[C@@H](Cc1c[nH]c2ccccc12)C(=O)N[C@@H](CC(C)C)C(=O)N[C@H](C(=O)N[C@H](CCCNC(=N)N)C(=O)N[C@@H](CCC(N)=O)C(=O)N[C@@H](CCCNC(=N)N)C(=O)N[C@H](Cc1ccc(O)cc1)C(N)=O)[C@@H](C)O [Compound 21, Y-Aib-E-G-T-F-T-S-D-Y-S-I-Aib-L-E-K-Q-A-Q-Aib-A-F-V-E-W-L-I-K(1,3)-G-G-P-S-S-G-A-S-L-R-DHis-Y-Y-N-W-L-T-DArg-Q-R-DTyr-NH2.C20DA-gGlu-gGlu-gGlu-gGlu-gGlu-gGlu-eLys(1,2)]
– | 13.4 nM | 0.25 nM | – | – | 17.2 nM | H-Y[Aib]EGTFTSDYSI[Aib]LEKQAQ[Aib]AFVEWLIK([AEEA-AEEA-γGlu-γGlu-γGlu-γGlu-C20 diacid])GGPEEPASLRHYYNWLTRQRY-NH2 [Compound 206, Y-Aib-E-G-T-F-T-S-D-Y-S-I-Aib-L-E-K-Q-A-Q-Aib-A-F-V-E-W-L-I-K(1,3)-GGPEEPASLRHYYNWLTRQRY-NH2.C20DA-gGlu-gGlu-gGlu-gGlu-OEG-OEG(1,2)]
